In PMC6080781, “ATP competes with PIP2 for binding to gelsolin” (PLoS ONE, 2018):
Like-named read-outs stand apart in the source and are kept apart here. One block for each molecule: values may come before it.

What was measured:
gelsolin [1] = details: equilibrium dialysis, high NaCl concentrations, cited from earlier work
gelsolin [2] = target: T1, gelsolin (Homo sapiens, UniProt P06396); test: Steady-state fluorescence anisotropy of ATP-N binding to gelsolin
T1 construct: His tag (cleaved yes); made in house; host or cells: E. coli Rosetta2 (DE3) pLysS, pSY5 plasmid
Method: (§1) His-tagged human wild-type gelsolin was expressed in E. coli strain Rosetta2 (DE3) pLysS cells from a pSY5 plasmid. […] Traces of calcium were removed by dialysis (2 mM Tris-HCl, 1 mM EGTA, pH 7.4, overnight). Rabbit skeletal muscle actin was prepared from acetone powder (Pel-Freez Biologicals) in a protocol modified from Spudich and Watt. Actin was stored in buffer A (2 mM Tris-HCl, 0.2 mM ATP (ATP disodium trihydrate, Sigma-Aldrich), 0.1 mM CaCl2 (pCa 4), 0.1 mM DTT and 0.005% NaN3, pH 7.4). Alexa Fluor^TM 488 C5 Maleimide (Life Technologies) was used to label cysteine residues of gelsolin based on the manufacturer’s recommendations (Thermo Fisher Scientific).
(§2) We used a fluorescent derivative of PIP2 (PtdIns-(4,5)-P2-fluorescein, Cayman Chemicals, NU-10010388, λex = 493 nm, λem = 520 nm, abbreviated as PIP2-F) and a fluorescent derivative of ATP (N^6-(6-amino)hexyl-ATP-ATTO-532, Jena Bioscience, NU-805-532, λex = 532 nm, λem = 553 nm, abbreviated as ATP-N) as probes for the binding of PIP2 and ATP to gelsolin. Fluorescence intensities were measured on a Safire^2 monochromator microplate reader (TECAN) at 22°C. Steady-state fluorescence anisotropy values were determined according to Eq 1 [65], where IVV and IVH, respectively, are the intensities of vertically and horizontally polarized emission on excitation with vertically polarized light, with the correction factor, G, being the ratio of IVH/IVV.
(§3) The dissociation constants for ATP and PIP2 were calculated using a hyperbolic model from anisotropy data that had reached saturation during the gelsolin titrations Eq 2: r=rf+(rb−rf)(Kd+[G]+[L]−(Kd+[G]+[L])^2−4[G][L]/2[L]) (2) where rf is the anisotropy of free ligand, rb is the anisotropy of gelsolin-bound ligand, [L] is the total concentration of ligand, Kd is the dissociation constant and [G] is the total concentration of gelsolin. The anisotropy of 0.5 μM ATP-N was measured in the presence of gelsolin concentrations: 0, 0.2, 1.5, 2, 3, 5 and 8 μM. Saturation was evident at 5 μM characterized by an anisotropy value of 0.15 ± 0.006. The calcium and magnesium sensitivities of ATP binding to gelsolin were characterized by the change in anisotropy of solutions containing 0.5 μM ATP-N in the presence of 5 μM of gelsolin over a range of divalent cation concentrations of pCa 2–12 or pMg 1–12, where pCa and pMg refer to[…]. […] Anisotropy of 0.5 μM or 0.25 μM solutions of PIP2-F in the presence of 5 μM gelsolin was used to probe the changes in binding of the complexes under different calcium, magnesium, salt and ATP conditions.

[3] = Fluorescence emission of ATP-N with cations in the absence of gelsolin (precipitation); format: physicochemical
Method: Supplementary file pone.0201826.s005.pdf: S5 Fig Assessment of the effects of calcium and ATP on the binding of ATP-N and PIP2-F to gelsolin. (A) Kds were calculated from the fit data with Eq 2 of gelsolin:PIP2-F binding under different calcium concentrations in the absence or presence of ATP. In the absence of ATP, PIP2-F (0.5 μM) binds to gelsolin, as reflected by thehigh affinity, across a wide range of calcium concentrations. […] (B) In the absence of gelsolin, calcium directly precipitates ATP-N (C, open triangles) with a half-maximum value of 70.4 ± 0.7 μM. Magnesium has no effect on the fluorescence emission of ATP-N either in the absence (M, orange circles) or presence of 10 μM calcium (MC, purple squares). Data were fitted with simple sigmoidal curves. (C) The reported FURA-2FF dissociation constant for calcium ions is 25 μM (A.G. Scientific Inc.). The calcium-dependent fluorescence emission profile of FURA-2FF (2 μM) over pCa range of 5–7 was similar in the presence and absence of 20 μM PIP2, which were fitted with simple sigmoidal curves. […] The measurement was carried out with a Perkin Elmer LS-55 spectrofluorimeter (λex = 340 nm, λem = 505 nm). (PDF) Click here for additional data file.

gelsolin [4] = target: T1, gelsolin; test: Steady-state fluorescence anisotropy of PIP2-F binding to gelsolin
Method: as §1, §2
as §3, with “Saturation was evident at 5 μM characterized by an anisotropy value of 0.15 ± 0.006.” left out

[5] = set-up: method as in A.G. Scientific Inc.; details: ref A.G. Scientific Inc.; read-out: dissociation constant for calcium ions; cited from earlier work
[6] = Critical micelle concentration by dynamic light scattering; format: physicochemical
Method: tested, PIP2-F was free from micelle formation at concentrations of 0.5 µM or below, whereas […]
Methods: The critical micelle concentrations of PIP2 and 1-(1-octadecanoyl-fluorescein-2R-octadecanoylphosphatidyl)inositol-4,5-bisphosphate (Cayman Chemical, abbreviated as PIP2-F) were determined by dynamic light scattering (Huang et al., 2011). Fifty microliter samples were prepared by serial dilution of PIP2 or PIP2-F into a low salt buffer (2 mM Tris-HCl, pH 7.4), or the same buffer supplemented with 100 mM KCl, 1 mM MgCl2, and/or 1 mM CaCl2. After incubation for 30 min, the samples were centrifuged at 15,000 x g for 10 min, transferred into a 384-well clear bottom plate, and light scattering was measured using a Wyatt Dynapro plate reader at room temperature. The concentrations of PIP2-F were subsequently determined by light absorbance at 494 nm with a Nanodrop spectrophotometer. […]
Huang, W., Jiang, D., Wang, X., Wang, K., Sims, C. E., Allbritton, N. L. and Zhang, Q.

[7] = 0.5 μM ATP-N, 5 μM gelsolin, sigmoidal fitting

T1 sequence (P06396 28-782): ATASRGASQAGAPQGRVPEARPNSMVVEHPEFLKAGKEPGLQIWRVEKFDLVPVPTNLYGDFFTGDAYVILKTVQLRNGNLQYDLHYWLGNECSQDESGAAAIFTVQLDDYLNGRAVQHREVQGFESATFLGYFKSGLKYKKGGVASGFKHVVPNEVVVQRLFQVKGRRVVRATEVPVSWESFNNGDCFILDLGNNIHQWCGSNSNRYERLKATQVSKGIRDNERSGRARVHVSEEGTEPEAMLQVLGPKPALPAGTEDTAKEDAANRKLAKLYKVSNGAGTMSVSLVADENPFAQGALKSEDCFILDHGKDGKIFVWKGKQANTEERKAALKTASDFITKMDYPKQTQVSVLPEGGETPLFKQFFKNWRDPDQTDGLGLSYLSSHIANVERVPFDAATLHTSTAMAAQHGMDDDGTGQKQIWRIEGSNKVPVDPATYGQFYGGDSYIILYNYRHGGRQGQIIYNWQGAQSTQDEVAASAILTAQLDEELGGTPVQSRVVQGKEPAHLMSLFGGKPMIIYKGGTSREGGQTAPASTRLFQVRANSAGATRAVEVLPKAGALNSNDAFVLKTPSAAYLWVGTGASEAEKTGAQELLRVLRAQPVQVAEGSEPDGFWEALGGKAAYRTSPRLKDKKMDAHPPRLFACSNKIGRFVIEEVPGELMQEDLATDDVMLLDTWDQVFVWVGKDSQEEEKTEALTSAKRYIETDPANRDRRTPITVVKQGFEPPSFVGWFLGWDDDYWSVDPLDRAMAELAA

Molecule: Nc1ncnc2c1ncn2[C@@H]1O[C@H](COP(=O)(O)OP(=O)(O)O)[C@@H](O)[C@H]1O [ADP]
association with gelsolin (gelsolin [1]): no significant association

Molecule: Nc1nc2c(ncn2[C@@H]2O[C@H](COP(=O)(O)OP(=O)(O)O)[C@@H](O)[C@H]2O)c(=O)[nH]1 [GDP]
association with gelsolin (gelsolin [1]): no significant association

Molecule: Nc1nc2c(ncn2[C@@H]2O[C@H](COP(=O)(O)OP(=O)(O)OP(=O)(O)O)[C@@H](O)[C@H]2O)c(=O)[nH]1 [GTP]
Kd (gelsolin [1]; read-out: dissociation constant for gelsolin): 1.8 µM

inflection point (pCa) of ATP-N anisotropy decrease (gelsolin [2]; [7]): 5.2
IC50 (gelsolin [2]; 0.5 μM ATP-N, 5 μM gelsolin, read-out: calcium concentration at which 50% of ATP-N remains bound to gelsolin): 6.3 ± 0.2 µM
half-maximum value of calcium for precipitation of ATP-N [3]: 70.4 ± 0.7 µM
Molecule: [Ca+2] [calcium]

inflection point (pMg) of ATP-N anisotropy decrease (gelsolin [2]; [7]): 2.3
IC50 (gelsolin [2]; 0.5 μM ATP-N, 5 μM gelsolin, read-out: magnesium concentration at which 50% of ATP-N remains bound to gelsolin): 5000 ± 1100 µM
effect on the fluorescence emission of ATP-N ([3]; absence or presence of 10 μM calcium): no effect
magnesium concentration above which the ATP effect on gelsolin/PIP2-F is diminished (gelsolin [4]; 0.5 mM ATP, 0.5 μM PIP2-F, 5 μM gelsolin): above 7 mM
Molecule: [Mg+2] [magnesium]

Molecule: FURA-2FF
Kd [5]: 25 µM

anisotropy of ATP-N at saturation (gelsolin [2]; 0.5 μM ATP-N, 5 μM gelsolin): 0.15 ± 0.006
Kd (gelsolin [2]; 0.5 μM ATP-N, absence of divalent cations): 0.71 ± 0.52 µM
Kd (gelsolin [2]; 50 mM KCl, 1 mM MgCl2 (pMg 3), titration with gelsolin): 1.8 µM
Kd (gelsolin [2]; 100 mM KCl): 1.27 ± 0.6 µM
Kd (gelsolin [2]; 100 mM KCl, 1 mM MgCl2 (pMg 3)): 1.58 ± 0.85 µM
Kd (gelsolin [2]; 120 mM KCl): 1.42 ± 0.27 µM
Kd (gelsolin [2]; 120 mM KCl, 1 mM MgCl2 (pMg 3)): 2.34 ± 0.73 µM
Kd (gelsolin [2]; actin polymerization conditions, above 100 μM calcium): 8.05 ± 1.32 µM
Molecule: N^6-(6-amino)hexyl-ATP-ATTO-532 [ATP-N]

CMC of PIP2-F ([6]; 1 mM CaCl2 with 100 mM KCl or 100 mM KCl and 1 mM MgCl2): ~ 0.5 μM
CMC of PIP2-F ([6]; absence of calcium): ~ 10 μM
micelle formation ([6]; at or below 0.5 μM, buffer conditions tested): failed to form micelles
steady-state anisotropy of PIP2-F with gelsolin (gelsolin [4]; 0.5 μM PIP2-F, 5 μM gelsolin, no ATP, 1 mM Ca2+ (pCa 3)): 0.04
steady-state anisotropy of PIP2-F with gelsolin (gelsolin [4]; 0.5 μM PIP2-F, 5 μM gelsolin, no ATP, ≈0–10 μM Ca2+ (pCa 15–5)): approximately 0.12
Kd (gelsolin [4]; 0.5 μM PIP2-F, absence of divalent cations, read-out: Kd of PIP2-F for gelsolin): 0.84 ± 0.39 µM
Kd (gelsolin [4]; 100 mM KCl, read-out: Kd of PIP2-F for gelsolin): 1.35 ± 0.7 µM
Kd (gelsolin [4]; 120 mM KCl, read-out: Kd of PIP2-F for gelsolin): 3.12 ± 1.7 µM
Kd (gelsolin [4]; actin polymerization conditions (10 μM Ca2+, 1 mM Mg2+, 50 mM K+), absence of ATP, read-out: Kd of PIP2-F for gelsolin): 2.7 ± 0.2 µM
Kd (gelsolin [4]; no ATP, 1–10 μM calcium (pCa 6–5), absence of KCl and magnesium, read-out: Kd of PIP2-F/gelsolin interaction): < 1 µM
Kd (gelsolin [4]; no ATP, entire calcium range, absence of KCl and magnesium, read-out: Kd of PIP2-F/gelsolin interaction): < 20 µM
Molecule: PtdIns-(4,5)-P2-fluorescein [PIP2-F]
